Numbered stars: 1 amine (or outer) side, 2 acyl side, 3 side chain; on linkers, the order of the positions; unused ones are H or OH. Bridge positions count the residues as written; N and C are the ends. Square brackets hold non-standard residues; d marks the D form. Peptide text beside a SMILES is read from it. * marks the point of attachment. Ala(piperidin-4-yl) = O=C([C@H](CC1CCN([*:3])CC1)N[*:1])[*:2]; DOTA = O=C(O)CN1CCN(CC(=O)O)CCN(CC(=O)*)CCN(CC(=O)O)CC1; Phe(4-CH2NH2) = NCc1ccc(C[C@H](N)C(=O)O)cc1; 1Nal = N[C@@H](Cc1cccc2ccccc12)C(=O)O; 2Nal = N[C@@H](Cc1ccc2ccccc2c1)C(=O)O; NMetBuAla = CN[C@@H](CC(C)(C)C)C(=O)O; tBuAla = CC(C)(C)C[C@H](N)C(=O)O; αMeD = C[C@](N)(CC(=O)O)C(=O)O; AllylGly = C=CC[C@H](N)C(=O)O; αMeP = C[C@@]1(C(=O)O)CCCN1; NMeS = CN[C@@H](CO)C(=O)O
target: T1, human DLL3 (Homo sapiens, UniProt Q9NYJ7); assay: Affinity determination by Surface Plasmon Resonance (SPR), Biacore, 1:1 binding model; conditions: biotinylated human DLL3 on streptavidin chip, 25° C.; NB = nonbinding
T1 construct: biotin (biotinylated)
T1 sequence (Q9NYJ7 27-618): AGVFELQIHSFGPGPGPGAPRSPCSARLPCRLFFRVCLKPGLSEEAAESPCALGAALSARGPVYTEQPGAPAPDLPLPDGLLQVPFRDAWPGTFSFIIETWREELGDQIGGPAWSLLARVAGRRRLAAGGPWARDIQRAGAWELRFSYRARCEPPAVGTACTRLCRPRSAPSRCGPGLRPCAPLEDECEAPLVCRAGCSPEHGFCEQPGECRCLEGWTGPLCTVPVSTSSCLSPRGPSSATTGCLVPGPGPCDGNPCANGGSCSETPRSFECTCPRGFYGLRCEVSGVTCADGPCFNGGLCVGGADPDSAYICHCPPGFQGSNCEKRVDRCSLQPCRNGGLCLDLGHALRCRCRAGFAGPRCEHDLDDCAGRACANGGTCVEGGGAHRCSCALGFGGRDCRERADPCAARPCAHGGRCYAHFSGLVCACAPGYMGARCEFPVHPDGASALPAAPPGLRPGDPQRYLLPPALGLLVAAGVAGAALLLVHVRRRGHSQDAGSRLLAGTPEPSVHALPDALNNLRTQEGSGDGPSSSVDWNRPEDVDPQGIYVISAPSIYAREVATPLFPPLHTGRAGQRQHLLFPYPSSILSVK
Summary of the method: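 SPR with biotinylated human DLL3 captured on a streptavidin chip, with a reference surface subtracted. Samples were injected at several concentrations at 100 μL/min in phosphate buffer with 137 mM NaCl, 2.7 mM KCl, 0.05% P20 and 2% DMSO. Kinetic and affinity constants came from a 1:1 binding fit.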

Kd | Structure (SMILES)
> 30 nM | CC(=O)N[C@@H](CC1CCNCC1)C(=O)N[C@@H](CO)C(=O)N[C@@H](CC(=O)O)C(=O)N[C@H]1CC=CC[C@@H](C(=O)N2CCC[C@@]2(C)C(=O)N[C@@H](Cc2ccccc2)C(=O)N[C@@H](CC(=O)O)C(N)=O)NC(=O)[C@H](CC(N)=O)NC(=O)[C@H](Cc2ccc3ccccc3c2)NC(=O)[C@H](Cc2ccc(CNC(=O)CN3CCN(CC(=O)O)CCN(CC(=O)O)CCN(CC(=O)O)CC3)cc2)NC(=O)[C@H](CC(C)(C)C)N(C)C(=O)[C@H](Cc2cccc3ccccc23)NC1=O [compound 187, Ac-[3-(4-piperidinyl)-Ala]-S-D-AllyG(4)-(1Nal)-(NMe-Tba)-[PAF(DOTA)]-(2Nal)-N-AllyG(4)-(aMe-P)-F -D-CONH2] (Ac-[Ala(piperidin-4-yl)]SD[AllylGly][1Nal][NMetBuAla][Phe(4-CH2NH2)](DOTA)[2Nal]N[AllylGly][αMeP]FD-NH2; staple 4-10 (inferred))
> 30 nM | CC(=O)N[C@@H](CO)C(=O)N[C@@H](CC(=O)O)C(=O)N[C@H]1C/C=C/C[C@@H](C(=O)N2CCC[C@@]2(C)C(=O)N[C@@H](Cc2ccccc2)C(=O)N[C@@H](CC(=O)O)C(=O)N[C@H](CCCCNC(=O)CN2CCN(CC(=O)O)CCN(CC(=O)O)CCN(CC(=O)O)CC2)C(N)=O)NC(=O)[C@H](CC(N)=O)NC(=O)[C@H](Cc2ccc3ccccc3c2)NC(=O)[C@H](CC2CCNCC2)NC(=O)[C@H](CC(C)(C)C)N(C)C(=O)[C@H](Cc2cccc3ccccc23)NC1=O [compound 189, Ac-S-D-AllyG(4)-(1Nal)-(NMe-Tba)-[3-(4-piperidinyl)-Ala]-(2Nal)-N-AllyG(4)-(aMe-P)-F -D-[D-Lys(DOTA)]-NH2] (Ac-SD[AllylGly][1Nal][NMetBuAla][Ala(piperidin-4-yl)][2Nal]N[AllylGly][αMeP]FD[dK](DOTA)-NH2; staple (E) 3-9)
1.51 nM | CC(=O)N[C@@H](CC1CCNCC1)C(=O)N(C)[C@@H](CO)C(=O)N[C@@H](CC(=O)O)C(=O)N[C@H]1C/C=C/C[C@@H](C(=O)N2CCC[C@@]2(C)C(=O)N[C@@H](Cc2ccccc2)C(=O)N[C@@H](CC(=O)O)C(N)=O)NC(=O)[C@H](CC(N)=O)NC(=O)[C@H](Cc2ccc3ccccc3c2)NC(=O)[C@H](Cc2ccc(CNC(=O)CN3CCN(CC(=O)O)CCN(CC(=O)O)CCN(CC(=O)O)CC3)cc2)NC(=O)[C@H](CC(C)(C)C)NC(=O)[C@H](Cc2cccc3ccccc23)NC1=O [compound 190, Ac-[3-(4-piperidinyl)-Ala]-(NMe-Ser)-D-AllyG(4)-(1Nal)-(t-Bu-Ala)-[PAF(DOTA)]-(2Nal)-N-AllyG(4)-(aMe-P)-F-D-CONH2] (Ac-[Ala(piperidin-4-yl)][NMeS]D[AllylGly][1Nal][tBuAla][Phe(4-CH2NH2)](DOTA)[2Nal]N[AllylGly][αMeP]FD-NH2; staple (E) 4-10)
0.27 nM | CC(=O)N[C@@H](CC1CCNCC1)C(=O)N[C@@H](CO)C(=O)N[C@@](C)(CC(=O)O)C(=O)N[C@H]1C/C=C/C[C@@H](C(=O)N2CCC[C@@]2(C)C(=O)N[C@@H](Cc2ccccc2)C(=O)N[C@@H](CC(=O)O)C(N)=O)NC(=O)[C@H](CC(N)=O)NC(=O)[C@H](Cc2ccc3ccccc3c2)NC(=O)[C@H](Cc2ccc(CNC(=O)CN3CCN(CC(=O)O)CCN(CC(=O)O)CCN(CC(=O)O)CC3)cc2)NC(=O)[C@H](CC(C)(C)C)NC(=O)[C@H](Cc2cccc3ccccc23)NC1=O [compound 194, Ac-[3-(4-piperidinyl)-Ala]-S-(aMe-Asp)-AllyG(4)-(1Nal)-(t-Bu-Ala)-[PAF(DOTA)]-(2Nal)-N-AllyG(4)-(aMe-P)-F-D-CONH2] (Ac-[Ala(piperidin-4-yl)]S[αMeD][AllylGly][1Nal][tBuAla][Phe(4-CH2NH2)](DOTA)[2Nal]N[AllylGly][αMeP]FD-NH2; staple (E) 4-10)
